From PMC2818879 (Journal of medicinal chemistry, 2010)

How the values were obtained:
cloned rat D3 receptor = cloned rat D3 receptor (Rattus norvegicus, UniProt P19020); experiment: Inhibition of [3H]spiperone binding to D3 receptors expressed in HEK-293 cells; details: ratio of Ki values
cloned human D2 receptor = cloned human D2 receptor (Homo sapiens, UniProt P14416); experiment: Stimulation of [35S]GTPγS binding, D2 receptor expressed in CHO cells; details: read-out: CHO-D2 %Emax
[1] = tested on: reserpine-induced hypolocomotion in rats; experiment: Reversal of reserpine-induced hypolocomotion in rats; details: 10 µMol/kg s.c.; for Effect compared to reserpine control (ANOVA, Dunnett's analysis): horizontal activity, six rats
6-OHDA lesioned rats = experiment: Rotational experiment with 6-OH-DA unilaterally lesioned rats; assay type: in vivo, rat

Chain of cloned human D2 receptor (P14416 whole entry): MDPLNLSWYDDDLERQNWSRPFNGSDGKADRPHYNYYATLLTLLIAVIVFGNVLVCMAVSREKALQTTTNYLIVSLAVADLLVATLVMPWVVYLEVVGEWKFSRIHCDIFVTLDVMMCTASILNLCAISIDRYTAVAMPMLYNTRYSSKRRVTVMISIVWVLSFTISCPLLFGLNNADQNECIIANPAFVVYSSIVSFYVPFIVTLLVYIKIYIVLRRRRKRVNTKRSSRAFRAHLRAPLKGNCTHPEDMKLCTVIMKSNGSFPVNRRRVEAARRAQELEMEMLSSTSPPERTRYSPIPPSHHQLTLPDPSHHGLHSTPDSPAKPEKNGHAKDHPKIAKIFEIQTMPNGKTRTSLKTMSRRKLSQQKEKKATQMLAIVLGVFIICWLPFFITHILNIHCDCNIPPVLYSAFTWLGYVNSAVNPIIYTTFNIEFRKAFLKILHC

Structure (SMILES) | Emax (cloned human D2 receptor) | Effect compared to reserpine control (ANOVA, Dunnett's analysis) [1] | Total rotations (contralateral) (6-OHDA lesioned rats; 5 µMol/kg s.c.) | Time of peak effect (rotations) (6-OHDA lesioned rats; 10 µMol/kg s.c.) | Total rotations (contralateral) (6-OHDA lesioned rats; 10 µMol/kg s.c.) | also measured
CCCN(CCN1CCN(c2nccc3ccccc23)CC1)[C@H]1CCc2nc(N)sc2C1 [(−)-24c, (S)-N^6-(2-(4-(Isoquinolin-1-yl)piperazin-1-yl)ethyl)-N^6-propyl-4,5,6,7-tetrahydrobenzo[d]-thiazole-2,6-diamine] | 88.4 ± 3.9% | significantly different | 2805 | about 7 h | 3688 | 
CCCN(CCN1CCN(c2cccc3ncccc23)CC1)[C@H]1CCc2nc(N)sc2C1 [(−)-24b, (S)-N^6-Propyl-N^6-(2-(4-(quinolin-5-yl)piperazin-1-yl)ethyl)-4,5,6,7-tetrahydrobenzo[d]thiazole-2,6-diamine] |  | significantly different | 2295 | around 7.5 h | 2648 | Time of peak effect (rotations) (6-OHDA lesioned rats; 5 µMol/kg s.c.): around 5 h
CCCN(CCN1CCN(c2ccnc3ccccc23)CC1)[C@H]1CCc2nc(N)sc2C1 [(−)-24a, (S)-N^6-Propyl-N^6-(2-(4-(quinolin-4-yl)piperazin-1-yl)ethyl)-4,5,6,7-tetrahydrobenzo[d]thiazole-2,6-diamine] |  | not statistically significant |  |  |  | Reversal of reserpine-induced hypolocomotion ([1]; reserpine 5 mg/kg s.c. 18 h before, locomotion monitored 6 h): much less active compared to 24b and 24c

Now from value to molecule, other results behind:

Emax (cloned human D2 receptor) | Structure (SMILES) | Effect compared to reserpine control (ANOVA, Dunnett's analysis) [1] | Total rotations (contralateral) (6-OHDA lesioned rats; 5 µMol/kg s.c.) | Time of peak effect (rotations) (6-OHDA lesioned rats; 10 µMol/kg s.c.) | Total rotations (contralateral) (6-OHDA lesioned rats; 10 µMol/kg s.c.) | also measured
119 ± 6% | CCCN(CCN1CCN(c2ccc(-c3ccccc3)cc2)CC1)[C@H]1CCc2nc(N)sc2C1 [Compound 2] |  |  |  |  | 
83.9 ± 0.3% | CCCN(CCC)CCc1cccc2c1CC(=O)N2 [Ropinirole, reference compound] | significantly different |  |  |  | 
